Data published in US12637454B2, “Heterocyclic monoacylglycerol lipase (MAGL) inhibitors” (Hoffmann-La Roche Inc., priority 2019, dated 2026).

target: T1, MAGL (Homo sapiens, UniProt Q99685); experiment: 2-AG assay (MAGL inhibitory activity, hydrolysis of 2-arachidonoylglycerol followed by mass spectrometry); format: biochemical; details: 50 pM MAGL, 8 μM 2-arachidonoylglycerol, 15 min preincubation, 30 min incubation at RT
T1 sequence (Q99685 1-303): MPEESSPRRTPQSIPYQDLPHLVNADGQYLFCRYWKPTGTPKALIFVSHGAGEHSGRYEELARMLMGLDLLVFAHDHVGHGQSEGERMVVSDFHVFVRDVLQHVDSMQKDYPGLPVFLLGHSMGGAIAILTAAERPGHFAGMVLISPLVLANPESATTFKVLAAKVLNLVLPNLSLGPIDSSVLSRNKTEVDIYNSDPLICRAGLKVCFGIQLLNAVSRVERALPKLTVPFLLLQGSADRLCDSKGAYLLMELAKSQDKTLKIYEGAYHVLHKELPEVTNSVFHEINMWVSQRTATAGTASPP
Procedure: Compounds were profiled for MAGL inhibitory activity by determining the enzymatic activity by following the hydrolysis of the natural substrate 2-arachidonoylglycerol (2-AG) resulting in arachidonic acid, which can be followed by mass spectrometry. This assay is hereinafter abbreviated “2-AG assay”.
The 2-AG assay was carried out in 384 well assay plates (PP, Greiner Cat #784201) in a total volume of 20 μL. Compound dilutions were made in 100% DMSO (VWR Chemicals 23500.297) in a polypropylene plate in 3-fold dilution steps to give a final concentration range in the assay from 12.5 μM to 0.8 pM. 0.25 μL compound dilutions (100% DMSO) were added to 9 μL MAGL in assay buffer (50 mM TRIS (GIBCO, 15567-027), 1 mM EDTA (Fluka, 03690-100 mL), 0.01% (v/v) Tween. After shaking, the plate was incubated for 15 min at RT. To start the reaction, 10 μL 2-arachidonoylglycerol in assay buffer was added. The final concentrations in the assay was 50 pM MAGL and 8 μM 2-arachidonoylglyerol. After shaking and 30 min incubation at RT, the reaction was quenched by the addition of […] of ACN containing 4 μM of d8-arachidonic acid. The amount of arachidonic acid was traced by an online SPE system (Agilent Rapidfire) coupled to a triple quadrupole mass spectrometer (Agilent 6460). A C18 SPE cartridge (G9205A) was used in an ACN/water liquid setup. The mass spectrometer was operated in negative electrospray mode following the mass transitions 303.1→259.1 for arachidonic acid and 311.1→267.0 for d8-arachidonic acid. The activity of the compounds was calculated based on the ratio of intensities [arachidonic acid/d8-arachidonic acid].

**Q.** For `O=C(c1cccc(/C=C\c2ccccc2)c1Br)N1CCN2C[C@@H](c3ccc(Cl)cc3)CC[C@@H]2C1` [Example 27, [(7R,9aR)-7-(4-chlorophenyl)-1,3,4,6,7,8,9,9a-octahydropyrido[1,2-a]pyrazin-2-yl]-[2-bromo-3-[(Z)-2-phenylethenyl]phenyl]methanone], which IC50 is on record?
**A.** 10.5 nM

**Q.** How did the IC50 turn out when `O=C(c1cccc(/C=C/c2ccccc2)c1Br)N1CCN2C[C@@H](c3ccc(Cl)cc3)CC[C@@H]2C1` [Example 28, [(7R,9aR)-7-(4-chlorophenyl)-1,3,4,6,7,8,9,9a-octahydropyrido[1,2-a]pyrazin-2-yl]-[2-bromo-3-[(E)-2-phenylethenyl]phenyl]methanone] was run?
**A.** 169 nM

**Q.** Which IC50 does the source give for `CC(C)(C)OC(=O)Nc1ccc(/C=C/c2cccc(C(=O)N3CCN4C[C@@H](c5ccc(Cl)cc5)CC[C@@H]4C3)c2Br)cc1` [Example 29] here?
**A.** 7.62 nM

**Q.** Which IC50 does the source give for `C=CC(=O)Nc1ccc(/C=C/c2cccc(C(=O)N3CCN4C[C@@H](c5ccc(Cl)cc5)CC[C@@H]4C3)c2Br)cc1` [Example 30, N-[4-[(E)-2-[3-[(7R,9aR)-7-(4-chlorophenyl)-1,3,4,6,7,8,9,9a-octahydropyrido[1,2-a]pyrazine-2-carbonyl]-2-bromophenyl]ethenyl]phenyl]prop-2-enamide] here?
**A.** 18.5 nM

**Q.** Which IC50 does the source give for `O=C(c1cccc(N2CC(O)C2)c1Cl)N1CCN2C[C@@](O)(c3ccc(C(F)(F)F)cn3)CC[C@@H]2C1` [Example 32, [(7R,9aR)-7-hydroxy-7-[5-(trifluoromethyl)pyridin-2-yl]-3,4,6,8,9,9a-hexahydro-1H-pyrido[1,2-a]pyrazin-2-yl]-[2-chloro-3-(3-hydroxyazetidin-1-yl)phenyl]methanone] here?
**A.** 72.7 nM

**Q.** Which IC50 does the source give for `O=C(c1cccc(O)c1Cl)N1CCN2C[C@@](O)(c3ccc(Cl)cc3)CC[C@@H]2C1` [Example 33, [(7S,9aR)-7-(4-chlorophenyl)-7-hydroxy-3,4,6,8,9,9a-hexahydro-1H-pyrido[1,2-a]pyrazin-2-yl]-(2-chloro-3-hydroxyphenyl)methanone] here?
**A.** 159 nM

**Q.** How did the IC50 turn out when `O=C1CN(c2cccc(C(=O)N3CCN4C[C@@](O)(c5ccc(Cl)cc5)CC[C@@H]4C3)c2F)CCN1` [Example 34, 4-(3-((7S,9aR)-7-(4-chlorophenyl)-7-hydroxyoctahydro-2H-pyrido[1,2-a]pyrazine-2-carbonyl)-2-fluorophenyl)piperazin-2-one] was run?
**A.** 145 nM

**Q.** `O=C1CN(c2cccc(C(=O)N3CCN4C[C@@](O)(c5ccc(Cl)cc5)CC[C@@H]4C3)c2Cl)CCN1` [Example 35, 4-[3-[(7S,9aR)-7-(4-chlorophenyl)-7-hydroxy-3,4,6,8,9,9a-hexahydro-1H-pyrido[1,2-a]pyrazine-2-carbonyl]-2-chlorophenyl]piperazin-2-one] was tested. Which IC50 did it give?
**A.** 86 nM

**Q.** With `O=C(c1cccc(N2CCC23COC3)c1Cl)N1CCN2C[C@@](O)(c3ccc(Cl)cc3)CC[C@@H]2C1` [Example 36, [(7S,9aR)-7-(4-chlorophenyl)-7-hydroxy-3,4,6,8,9,9a-hexahydro-1H-pyrido[1,2-a]pyrazin-2-yl]-[2-chloro-3-(6-oxa-1-azaspiro[3.3]heptan-1-yl)phenyl]methanone] as the molecule, how does the IC50 read?
**A.** 76 nM

**Q.** For `O=C(c1cccc(N2CC(O)C2)c1F)N1CCN2C[C@@](O)(c3ccc(F)c(Cl)c3)CC[C@@H]2C1` [Example 39, [(7S,9aR)-7-(3-chloro-4-fluorophenyl)-7-hydroxy-3,4,6,8,9,9a-hexahydro-1H-pyrido[1,2-a]pyrazin-2-yl]-[2-fluoro-3-(3-hydroxyazetidin-1-yl)phenyl]methanone], which IC50 is on record?
**A.** 38.5 nM

**Q.** With `O=C(c1cccc(N2CC(O)C2)c1Cl)N1CCN2C[C@@](O)(c3ccc(F)c(Cl)c3)CC[C@@H]2C1` [Example 40] as the molecule, how does the IC50 read?
**A.** 6.91 nM

**Q.** Which IC50 does the source give for `O=C(c1cccc(F)c1Cl)N1CCN2C[C@@](O)(c3ccc(C(F)(F)F)cn3)CC[C@@H]2C1` [Example 41, [(7R,9aR)-7-hydroxy-7-[5-(trifluoromethyl)pyridin-2-yl]-3,4,6,8,9,9a-hexahydro-1H-pyrido[1,2-a]pyrazin-2-yl]-(2-chloro-3-fluorophenyl)methanone] here?
**A.** 392 nM

**Q.** Which IC50 does the source give for `O=C(c1cccc(F)c1Cl)N1CCN2C[C@](O)(c3ccc(C(F)(F)F)cn3)CC[C@H]2C1` [Example 42, [(7S,9aS)-7-hydroxy-7-[5-(trifluoromethyl)pyridin-2-yl]-3,4,6,8,9,9a-hexahydro-1H-pyrido[1,2-a]pyrazin-2-yl]-(2-chloro-3-fluorophenyl)methanone] here?
**A.** 4820 nM

**Q.** How did the IC50 turn out when `O=C(c1cccc(N2CC[C@H](O)C2)c1Cl)N1CCN2C[C@@](O)(c3ccc(F)c(Cl)c3)CC[C@@H]2C1` [Example 43, [(7S,9aR)-7-(3-chloro-4-fluorophenyl)-7-hydroxy-3,4,6,8,9,9a-hexahydro-1H-pyrido[1,2-a]pyrazin-2-yl]-[2-chloro-3-[(3S)-3-hydroxypyrrolidin-1-yl]phenyl]methanone] was run?
**A.** 20.7 nM

**Q.** How did the IC50 turn out when `O=C(c1cccc(N2CC[C@@H](O)C2)c1Cl)N1CCN2C[C@@](O)(c3ccc(F)c(Cl)c3)CC[C@@H]2C1` [Example 44, [(7S,9aR)-7-(3-chloro-4-fluorophenyl)-7-hydroxy-3,4,6,8,9,9a-hexahydro-1H-pyrido[1,2-a]pyrazin-2-yl]-[2-chloro-3-[(3R)-3-hydroxypyrrolidin-1-yl]phenyl]methanone] was run?
**A.** 15.4 nM

**Q.** `O=C(c1cccc(N2CC[C@@H](O)C2)c1Cl)N1CCN2C[C@@](O)(c3ccc(Cl)cc3)CC[C@@H]2C1` [Example 45, [(7S,9aR)-7-(4-chlorophenyl)-7-hydroxy-3,4,6,8,9,9a-hexahydro-1H-pyrido[1,2-a]pyrazin-2-yl]-[2-chloro-3-[(3R)-3-hydroxypyrrolidin-1-yl]phenyl]methanone] was tested. Which IC50 did it give?
**A.** 66.8 nM

**Q.** With `CC1(O)CN(c2cccc(C(=O)N3CCN4C[C@@](O)(c5ccc(Cl)cc5)CC[C@@H]4C3)c2Cl)C1` [Example 46, [(7S,9aR)-7-(4-chlorophenyl)-7-hydroxy-3,4,6,8,9,9a-hexahydro-1H-pyrido[1,2-a]pyrazin-2-yl]-[2-chloro-3-(3-hydroxy-3-methylazetidin-1-yl)phenyl]methanone] as the molecule, how does the IC50 read?
**A.** 234 nM

**Q.** With `O=C(c1cccc(N2CCC[C@H](O)C2)c1Cl)N1CCN2C[C@@](O)(c3ccc(F)c(Cl)c3)CC[C@@H]2C1` [Example 47, [(7S,9aR)-7-(3-chloro-4-fluorophenyl)-7-hydroxy-3,4,6,8,9,9a-hexahydro-1H-pyrido[1,2-a]pyrazin-2-yl]-[2-chloro-3-[(3S)-3-hydroxypiperidin-1-yl]phenyl]methanone] as the molecule, how does the IC50 read?
**A.** 41.5 nM

**Q.** How did the IC50 turn out when `O=C(c1cccc(N2CCC[C@@H](O)C2)c1Cl)N1CCN2C[C@@](O)(c3ccc(F)c(Cl)c3)CC[C@@H]2C1` [Example 48, [(7S,9aR)-7-(3-chloro-4-fluorophenyl)-7-hydroxy-3,4,6,8,9,9a-hexahydro-1H-pyrido[1,2-a]pyrazin-2-yl]-[2-chloro-3-[(3R)-3-hydroxypiperidin-1-yl]phenyl]methanone] was run?
**A.** 292 nM

**Q.** With `O=C(c1cccc(N2CCC(O)CC2)c1Cl)N1CCN2C[C@@](O)(c3ccc(Cl)cc3)CC[C@@H]2C1` [Example 49, [(7S,9aR)-7-(4-chlorophenyl)-7-hydroxy-3,4,6,8,9,9a-hexahydro-1H-pyrido[1,2-a]pyrazin-2-yl]-[2-chloro-3-(4-hydroxypiperidin-1-yl)phenyl]methanone] as the molecule, how does the IC50 read?
**A.** 80.8 nM

**Q.** With `O=C(c1cccc(N2C[C@H](O)[C@@H](O)C2)c1Cl)N1CCN2C[C@@](O)(c3ccc(F)c(Cl)c3)CC[C@@H]2C1` [Example 51, [(7S,9aR)-7-(3-chloro-4-fluorophenyl)-7-hydroxy-3,4,6,8,9,9a-hexahydro-1H-pyrido[1,2-a]pyrazin-2-yl]-[2-chloro-3-[(3S,4S)-3,4-dihydroxypyrrolidin-1-yl]phenyl]methanone] as the molecule, how does the IC50 read?
**A.** 10.9 nM

**Q.** How did the IC50 turn out when `O=C(c1cccc(N2CC(F)(CO)C2)c1Cl)N1CCN2C[C@@](O)(c3ccc(F)c(Cl)c3)CC[C@@H]2C1` [Example 52, [(7S,9aR)-7-(3-chloro-4-fluorophenyl)-7-hydroxy-3,4,6,8,9,9a-hexahydro-1H-pyrido[1,2-a]pyrazin-2-yl]-[2-chloro-3-[3-fluoro-3-(hydroxymethyl)azetidin-1-yl]phenyl]methanone] was run?
**A.** 84.2 nM

**Q.** `O=C(c1cccc(N2CC(CO)C2)c1Cl)N1CCN2C[C@@](O)(c3ccc(F)c(Cl)c3)CC[C@@H]2C1` [Example 53, [(7S,9aR)-7-(3-chloro-4-fluorophenyl)-7-hydroxy-3,4,6,8,9,9a-hexahydro-1H-pyrido[1,2-a]pyrazin-2-yl]-[2-chloro-3-[3-(hydroxymethyl)azetidin-1-yl]phenyl]methanone] was tested. Which IC50 did it give?
**A.** 79.7 nM
